We go through 41 molecules from US20170101521A1, “THERMAL BASE GENERATOR, THERMOSETTING RESIN COMPOSITION, CURED FILM, CURED FILM MANUFACTURING METHOD, AND SEMICONDUCTOR DEVICE” (FUJIFILM Corporation, priority 2014, published 2017).

A short description of data set [1]: Base generation temperature by differential scanning calorimetry. Format: physicochemical. The conditions noted are these: DSC, heated to 250° C. at 5° C./min in pressure-resistant capsule; peak temperature of lowest exothermic peak. On the procedure:
The base generation temperature may be measured, for example, by heating a compound to 250° C. at a rate of 5° C./minute in a pressure-resistant capsule, reading a peak temperature of an exothermic peak having the lowest temperature, and taking the peak temperature as a base generation temperature, using differential scanning calorimetry.
Using differential scanning calorimetry (Q2000, manufactured by TA), (A) a thermal base generator was heated to 250° C. at 5° C./min in a pressure-resistant capsule. The peak temperature of an exothermic peak having the lowest temperature was read to measure such a peak temperature as a base generation temperature.

The conditions of data set [2]: literature value, or calculated with ACD/pKa for compounds not listed; cited from earlier work.

In data set [1], `C=CCN(CC(=O)O)CC(=O)O` [A-17] registered a Base generation temperature of 190 °C.

`CC[N+](CC)(CC)C(c1ccccc1)c1ccccc1.O=C([O-])C(=O)O` [A-36] displayed a Base generation temperature in data set [1] of 170 °C. Besides, the pKa1 of anion in data set [2] is given as 1.2.

Molecule `CCCCCCCC[N+](C)(C)CC(=O)c1ccccc1.O=C([O-])/C=C\C(=O)O` [A-39] came in with a Base generation temperature in data set [1] of 150 °C. Further, in data set [2], the pKa1 of anion is recorded as 1.9.

As to `Cc1ccc(N(CC(=O)O)CC(=O)O)cc1` [A-2], in data set [1], the Base generation temperature was 140 °C.

In data set [1], `C1CCC2=[N+](CC1)CCCN2.O=C([O-])C(=O)O` [A-34] came in with a Base generation temperature of 80 °C. Besides, the pKa1 of anion in data set [2] is 1.2.

`C1CN2CCN1CC2.O=C(O)C(=O)O` [A-33]: in data set [1], the Base generation temperature came to 70 °C. Moreover, the pKa1 of anion in data set [2] is reported as 1.2.

In data set [1], `CCCCCCCCCCCC[N+](C)(C)CC(=O)c1ccc2ccccc2c1.O=C([O-])/C=C\C(=O)O` [A-23] returned a Base generation temperature of 140 °C. For the same molecule, the pKa1 of anion in data set [2] is reported as 1.9.

Turning to `O=C(O)CN(CC(=O)O)c1ccccc1` [A-1], the Base generation temperature in data set [1] amounted to 145 °C.

Turning to `C[N+]1(CC(=O)c2ccccc2)CCCCC1.O=C([O-])C(=O)O` [A-30], the Base generation temperature in data set [1] amounted to 140 °C. In addition, the pKa1 of anion in data set [2] was 1.2.

The molecule `CC(C)(c1ccc(N(CC(=O)O)CC(=O)O)cc1)c1ccc(N(CC(=O)O)CC(=O)O)cc1` [A-9] yielded a Base generation temperature in data set [1] of 140 °C.

Regarding `O=C(O)CC(Nc1ccccc1)C(=O)O` (stereo not drawn) [A-11], the Base generation temperature in data set [1] was 200 °C.

Regarding `C=Cc1ccc(NCC(=O)O)cc1` [X-5, reference compound], in data set [1], the Base generation temperature result is “Higher than 200 °C”.

Take `O=C(O)CN(CC(=O)O)c1ccc(C(F)(F)F)cc1` [A-6]: the Base generation temperature in data set [1] was 155 °C.

`C[N+](C)(CC(=O)c1ccccc1)C1CCCCC1.O=C([O-])/C=C\C(=O)O` [A-40] registered a Base generation temperature in data set [1] of 150 °C. Moreover, the pKa1 of anion in data set [2] was 1.9.

For `CC(=O)c1ccc(N(CC(=O)O)CC(=O)O)cc1` [A-7], the Base generation temperature in data set [1] worked out at 155 °C.

As to `C=C(C)C(=O)OC(CO)N(CC(=O)O)c1ccccc1` (stereo not drawn) [X-4, reference compound], in data set [1], the Base generation temperature result was “Higher than 200 °C”.

For `O=C(C[n+]1ccccc1)c1ccccc1.O=C([O-])C(=O)O` [A-27], the Base generation temperature in data set [1] amounted to 140 °C. Also, the pKa1 of anion in data set [2] is reported as 1.2.

Turning to `CCCCCCCCCCCC[N+](C)(C)CC(=O)c1ccccc1.O=C([O-])/C=C\C(=O)O` [A-18], the Base generation temperature in data set [1] came out at 150 °C. Moreover, the pKa1 of anion in data set [2] was 1.9.

For `CCCCCCCCCCCC[N+](C)(C)CC(=O)c1ccccc1.O=C([O-])C(=O)O` [A-21], in data set [1], the Base generation temperature was determined as 150 °C. Further, the pKa1 of anion in data set [2] is on record as 1.2.

As to `O=C(C[N+]1=C2CCCCCN2CCC1)c1ccccc1.O=C([O-])C(=O)O` [A-28], in data set [1], the Base generation temperature turned out to be 140 °C. In data set [2], the pKa1 of anion is on record as 1.2.

`CCC(O)C[N+](C)(C)[N-]C(=O)c1ccccc1OC` (stereo not drawn) [X-1, reference compound]: the Base generation temperature in data set [1] is 80 °C.

In data set [1], `O=C(O)CN(CC(=O)O)c1ccc(-c2ccccc2)cc1` [A-4] had a Base generation temperature of 150 °C.

In turn, `O=C(O)CN(CC(=O)Nc1ccccc1)c1ccccc1` [A-16] registered a Base generation temperature in data set [1] of 130 °C.

The molecule `Cc1ccc(NC(CC(=O)O)C(=O)O)cc1` (stereo not drawn) [A-10] displayed a Base generation temperature in data set [1] of 200 °C.

The molecule `C[N+](C)(CC(=O)c1ccccc1)Cc1ccccc1.O=C([O-])/C=C\C(=O)O` [A-41] returned a Base generation temperature in data set [1] of 150 °C. Besides, the pKa1 of anion in data set [2] is 1.9.

The molecule `C[n+]1ccccc1.O=C([O-])C(=O)O` [A-37] returned a Base generation temperature in data set [1] of 180 °C. Also, in data set [2], the pKa1 of anion is 1.2.

Consider `O=C(O)CN(CC(=O)O)c1cc(C(F)(F)F)cc(C(F)(F)F)c1` [A-5], for which the Base generation temperature in data set [1] stood at 155 °C.

For the molecule `CCCCC(CC)C[N+](C)(C)CC(=O)c1ccccc1.O=C([O-])/C=C\C(=O)O` (stereo not drawn) [A-42], the Base generation temperature in data set [1] is 150 °C. Besides, in data set [2], the pKa1 of anion is 1.9.

`CCCCCC[N+](C)(C)CC(=O)c1ccccc1.O=C([O-])/C=C\C(=O)O` [A-38] displayed a Base generation temperature in data set [1] of 150 °C. Further, the pKa1 of anion in data set [2] is recorded as 1.9.

As for `O=C(O)CNc1ccccc1` [X-6, reference compound], in data set [1], the Base generation temperature result is “Higher than 200 °C”.

In turn, `COc1ccc(N(CC(=O)O)CC(=O)O)cc1` [A-3] returned a Base generation temperature in data set [1] of 140 °C.

`O=C(C[N+]1=C2CCCN2CCC1)c1ccccc1.O=C([O-])C(=O)O` [A-29] gave a Base generation temperature in data set [1] of 140 °C. In addition, in data set [2], the pKa1 of anion is recorded as 1.2.

On to `O=C(O)CN(CCN(CC(=O)O)CC(=O)O)CC(=O)O` [X-8, reference compound], for which the Base generation temperature entry in data set [1] was “Higher than 200 °C”.

`C[N+]1(C)CCCCC1.O=C([O-])C(=O)O` [A-32] gave a Base generation temperature in data set [1] of 190 °C. Further, the pKa1 of anion in data set [2] was 1.2.

Molecule `CCCCCCCCCCCC[N+](C)(C)CC(=O)c1ccccc1.O=C([O-])CCC(=O)O` [A-22] came in with a Base generation temperature in data set [1] of 130 °C. The pKa1 of anion in data set [2] was 4.2.

As for `C1CNC2=[N+](C1)CCCN2.O=C([O-])/C=C\C(=O)O` [X-9, reference compound], the Base generation temperature entry in data set [1] is “Lower than 40 °C”.

As for `CN(CC(=O)O)CC(=O)O` [X-7, reference compound], in data set [1], the Base generation temperature entry is “Higher than 200 °C”.

In the case of `CCN(CC)CC.O=C(O)CCC(=O)O` [A-13], the Base generation temperature in data set [1] stood at 170 °C.

In turn, `C1CCC2=[N+](CC1)CCCN2.O=C([O-])CCC(=O)O` [A-12] yielded a Base generation temperature in data set [1] of 150 °C.

In data set [1], `O=C(C[N+]12CCN(CC1)CC2)c1ccccc1.O=C([O-])C(=O)O` [A-31] yielded a Base generation temperature of 140 °C. In addition, the pKa1 of anion in data set [2] was 1.2.

As for `O=C(O)CN(CC(=O)O)c1ccc(Cc2ccc(N(CC(=O)O)CC(=O)O)cc2)cc1` [A-8], the Base generation temperature in data set [1] is 145 °C.
